One substance from patent US20240287614A1, “RECIPROCAL MICRORNA-MRNA PAIRINGS AS BIOMARKERS AND THERAPEUTIC TARGETS IN CANCER” (UNIVERSITY OF MARYLAND, EASTERN SHORE, priority 2023, published 2024) can be followed below.

Assay type in all cases: cell-based, human
For one series, the system named is MTOR. The series can be described thus: Western blot of mTOR in transfected prostate cancer cells. The following applies: mimic transfection vs NS transfection. How it is done: (§1) […] RC77 T/E, a primary prostate cancer cell line derived from a patient, was kindly provided by Dr. Johng Rhim at Center for Prostate Disease Research (CPDR) in Rockville, MD. LNCaP and PC-3 were served as prostate cancer cell line models, and RC77 T/E and MDA PCa 2b were served as prostate cancer cell models in the study. The cells were cultured in specific cell culture media, LNCaP was cultured in RPMI with 10% fetal bovine serum (FBS), PC-3 was cultured in DMEM with 10% FBS, MDA PCa 2b were cultured in BRFF-HPC1 with 20% FBS and RC77 T/E was cultured in Keratinocyte SFM with Human Recombinant Epidermal Growth Factor (EGF 1-53) and Bovine Pituitary Extract (BPE). Cells were maintained at 37° C. in a 5% CO2 incubator. LNCaP, PC-3 and MDA PCa 2b cells were seeded at density 3×10^4 cells/well in 6-well plates. RC77 T/E cells were seeded at density 5×10^4 cells/well in 6-well plates. […]
For measurement of the gene expression at protein level, proteins were extracted using M-PER Mammalian Protein Extraction Reagent (Thermo Fisher Scientific) with protease and phosphatase inhibitor cocktail (Thermo Fisher Scientific). Protein concentrations were quantified using BCA assay kit (Thermo Fisher Scientific). […]
On the technique in general: Immunoblotting shows a protein as a band on a membrane.

Series [1] relates to prostate cancer (LNCaP and PC-3) and prostate cancer (RC77 T/E and MDA PCa 2b) cell lines. The series is described as follows: BrdU-labeling cell proliferation assay. The following applies: PC-3, RC77 T/E and MDA PCa 2b, 48 h transfection, vs NS. How it is done: as §1
LNCaP, PC-3, RC77 T/E and MDA PCa 2b cells were seeded at density 3×10^4 cells/well in 6-well culture plates. […] 100 μL of stop solution was used to stop further reaction and followed by checking absorbance at dual wavelengths of 450 nm and 540 nm using Multiskan FC microplate photometer (Thermo Scientific).

For series [2], the system named is cancer cell lines (HT-29, SW620, MDA MB 231, MCF-7, A549, and H1299). The series can be described thus: TUNEL assay. The following applies: mimic vs NS transfected cancer cells; 48 h. How it is done: TUNEL assay was carried out according to the manufacturer's protocol (Click-iT™ Plus In-situ Apoptosis Detection with Alexa Fluor Dyes, Thermo Fisher Scientific). Precisely, 4×10^4 cells (HT-29, SW620, MDA MB 231, MCF-7, A549, and H1299) were seeded on coverslips and allowed to adhere for 24 h in 5% CO2 incubator at 37° C. These cells were fixed in 4% paraformaldehyde in 1×PBS after exposure of miR-99b-5p mimic or negative control mimic for 48 h, then washed with PBS three times followed by the incubation with 0.25% Triton X-100 in 1×PBS and ultimately the cells were incubated with differential steps of TUNEL reaction mixture as per the manufacturer's protocol. Lastly, the processed cells were counterstained with DAPI for 5 min, at room temperature in the dark. All labeled and/or prepared cells were mounted on glass slides and were visualized by Olympus BX3 fluorescence microscope (Olympus). Cell images were captured from 3-4 random areas at 10× magnification by using CellSens V1.18 software (Olympus).

In the case of “miR-99b-5p mimic: miRNA mimic of miR-99b-5p (SEQ ID NO: 2, CACCCGUAGAACCGACCUUGCG), purchased from Ambion (listed as RNA, chemistry not given here; listed as Homo sapiens)”, the “mTOR level (Western blot)” value in the series with MTOR is given as “downregulated”. Further, in series [1], the “cell proliferation (BrdU labeling)” value is on record as “reduction”. For the same substance, the “DNA breakages (TUNEL red fluorescent signals in nuclei)” value in series [2] is reported as “enhanced”.
